Assay results taken from PMC10531095, “Photonics of Some Monomethine Cyanine Dyes in Solutions and in Complexes with Biomolecules” (International Journal of Molecular Sciences, 2023).

Target: T1, HSA (Homo sapiens, UniProt P02768)
T1 construct: purchased Sigma-Aldrich
Experiment: FRET parameters between HSA donor fluorophores and MCD acceptors
Type: binding
Conditions: MCD acceptor
Description: Quenching of intrinsic fluorescence of HSA can occur, in particular, due to energy transfer (Förster resonance energy transfer, FRET) from protein donor fluorophores to MCD acceptor molecules. In the MCD–HSA system, complexation brings acceptors and donors closer together and facilitates FRET. FRET is likely because HSA fluorescence and MCD absorption spectra overlap. For MCD and HSA, the overlap integrals J (see Equation (S7) in Supplementary Materials) were obtained in the order of 2.0–7.0 × 10^15 mol^−1 cm^−1 nm^4 (for MCD 4 see Figure S15 in Supplementary Materials). […] This is probably due to the strong aggregation of MCD 3 in the presence of HSA, which decreases the concentration of monomeric dye molecules active in fluorescence quenching (see Supplementary Materials, Figure S8). […] But as the dye concentration increases, its aggregation is built up steeply, and the fluorescence quenching diminishes.
The parameters of FRET between albumin donor chromophores (tyrosine and tryptophan amino acid residues of HSA) and acceptors (MCD 1–4 molecules) were determined from the spectral fluorescent data using the standard formulae for the spectral overlap integral J (M^−1 cm^−1 nm^4) and critical radius of energy transfer R0 (see Supplementary Material, Equations (S7) and (S8), respectively). […]

T1 sequence (P02768 25-609): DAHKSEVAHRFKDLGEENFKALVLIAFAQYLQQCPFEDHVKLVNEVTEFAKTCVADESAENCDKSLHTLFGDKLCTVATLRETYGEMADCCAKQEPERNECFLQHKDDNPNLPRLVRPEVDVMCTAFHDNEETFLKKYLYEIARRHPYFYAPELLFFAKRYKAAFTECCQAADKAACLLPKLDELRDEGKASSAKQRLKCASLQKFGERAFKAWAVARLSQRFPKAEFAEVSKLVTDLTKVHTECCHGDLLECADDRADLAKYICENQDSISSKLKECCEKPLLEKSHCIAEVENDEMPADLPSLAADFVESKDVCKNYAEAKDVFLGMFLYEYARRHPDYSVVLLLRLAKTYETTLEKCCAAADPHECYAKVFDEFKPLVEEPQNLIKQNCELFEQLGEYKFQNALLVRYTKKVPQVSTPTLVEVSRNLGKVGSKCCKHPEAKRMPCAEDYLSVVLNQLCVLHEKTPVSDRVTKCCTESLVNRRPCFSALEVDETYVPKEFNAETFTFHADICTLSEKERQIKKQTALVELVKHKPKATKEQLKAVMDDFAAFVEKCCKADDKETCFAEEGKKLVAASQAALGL

## CCN1/C(=C/c2sc3ccccc3[n+]2CC)Sc2ccccc21 [MCD 3]
  R0, Förster critical radius: ~ 50 Å
